From patent US6384261B1, “Phosphoramidates, phosphinic amides and related compounds and the use thereof to modulate the activity of endothelin” (Texas Biotechnology Corporation, priority 1996, dated 2002)
Where two headings read alike, the source gives them in different places.

How the values were obtained:
human ETA receptors = molecular target: T1, human ETA receptors (Homo sapiens, UniProt P25101); assay: Binding Test #1: inhibition of 125I-endothelin-1 binding to ETA receptors (TE 671 cell membranes)
T1 construct: endogenous in cells; host or cells: TE 671 cells (ATCC HTB 139), membrane preparation
T1 sequence (P25101 21-427): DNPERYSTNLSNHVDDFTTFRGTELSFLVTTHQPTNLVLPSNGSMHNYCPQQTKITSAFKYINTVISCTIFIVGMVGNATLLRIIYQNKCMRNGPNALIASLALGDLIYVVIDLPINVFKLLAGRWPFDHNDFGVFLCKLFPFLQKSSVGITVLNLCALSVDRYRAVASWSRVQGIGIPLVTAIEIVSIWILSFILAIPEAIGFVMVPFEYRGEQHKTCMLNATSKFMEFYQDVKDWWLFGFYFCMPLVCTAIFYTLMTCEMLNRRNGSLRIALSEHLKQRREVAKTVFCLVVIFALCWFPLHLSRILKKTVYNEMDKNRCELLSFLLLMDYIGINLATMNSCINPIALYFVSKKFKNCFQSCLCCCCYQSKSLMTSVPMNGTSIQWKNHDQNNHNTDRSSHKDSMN
From the text: (§1) Compounds that are potential endothelin antagonists are identified by testing their ability to compete with ^125I-labeled ET-1 for binding to human ETA receptors or ETB receptors present on isolated cell membranes. The effectiveness of the test compound as an antagonist or agonist of the biological tissue response of endothelin can also be assessed by measuring the effect on endothelin induced contraction of isolated rat thoracic aortic rings. The ability of the compounds to act as antagonists or agonists for ETB receptors can be assessed by testing the ability of the compounds to inhibit endothelin-1 induced prostacyclin release from cultured bovine aortic endothelial cells.
TE 671 cells (ATCC Accession No. HTB 139) express ETA receptors. These cells were grown to confluence in T-175 flasks. Cells from multiple flasks were collected by scraping, pooled and centrifuged for 10 min at 190×g. The cells were resuspended in phosphate buffered saline (PBS) containing 10 mM EDTA using a Tenbroeck homogenizer. The suspension was centrifuged at 4° C. at 57,800×g for 15 min, the pellet was resuspended in 5 ml of buffer A (5 mM HEPES buffer, pH 7.4 containing aprotinin (100 KIU/ml)) and then frozen and thawed once. 5 ml of Buffer B (5 mM HEPES Buffer, pH 7.4 containing 10 mM MnCl2 and 0.001% deoxyribonuclease Type 1) was added, the suspension mixed by inversion and then incubated at 37° C. for 30 minutes. The mixture was centrifuged at 57,800×g as described above, the pellet washed twice with buffer A and then resuspended in buffer C (30 mM HEPES buffer, pH 7.4 containing aprotinin (100 KIU/ml) to give a final protein concentration of 2 mg/ml and stored at −70° C. until use.
The membrane suspension was diluted with binding buffer (30 mM HEPES buffer, pH 7.4 containing 150 mM NaCl, 5 mM MgCl2, 0.5% Bacitracin) to a concentration of 8 μg/50 μl. ^125I-endothelin-1 (3,000 cpm, […]) was added to 50 μL of either: (A) endothelin-1 (for non specific binding) to give a final concentration 80 nM); (B) binding buffer for total binding); or (C) a test compound (final concentration 1 nM to 100 μM). The membrane suspension (50 μL), containing up to 8 μg of membrane protein, was added to each of (A), (B), or (C). Mixtures were shaken, and incubated at 4° C. for 16-18 hours, and then centrifuged at 4° C. for 25 min at 2,500×g. Alternatively, the incubation can be conducted at other temperatures, such as 24° C. When incubated at 24° C., the IC50 concentrations are 2- to 10-fold higher than when the incubation is conducted at 4° C.
The supernatant, containing unbound radioactivity, was decanted and the pellet counted on a Genesys multiwell gamma counter. The degree of inhibition of binding (D) was calculated according to the following equation: [formula]
Each test was generally performed in triplicate.

human ETB receptor = molecular target: T2, human ETB receptor (Homo sapiens, UniProt P24530); assay: Binding Test #2: inhibition of 125I-endothelin-1 binding to ETB receptors (transfected COS7 cell membranes)
T2 construct: expressed in transfected cells; host or cells: COS7 cells, membrane preparation
T2 sequence (P24530 27-442): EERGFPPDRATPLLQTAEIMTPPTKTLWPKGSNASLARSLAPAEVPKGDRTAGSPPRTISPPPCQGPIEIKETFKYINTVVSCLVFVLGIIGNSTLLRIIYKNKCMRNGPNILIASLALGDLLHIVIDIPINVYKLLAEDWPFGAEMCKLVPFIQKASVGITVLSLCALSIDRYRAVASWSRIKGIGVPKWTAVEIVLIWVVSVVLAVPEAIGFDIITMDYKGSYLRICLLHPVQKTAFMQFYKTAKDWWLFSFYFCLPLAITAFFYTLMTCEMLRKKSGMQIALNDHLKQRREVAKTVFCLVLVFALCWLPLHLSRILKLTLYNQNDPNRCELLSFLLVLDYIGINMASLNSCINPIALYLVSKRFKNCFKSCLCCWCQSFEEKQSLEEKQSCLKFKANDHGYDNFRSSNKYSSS
From the text: as §1
COS7 cells were transfected with DNA encoding the ETB receptor, The resulting cells, which express the human ETB receptor, were grown to confluence in T-150 flasks. Membrane was prepared as described above. The binding assay was performed as described above using the membrane preparation diluted with binding buffer to a concentration of 1 μg/50 μl.
Briefly, the COS7 cells, described above, that had been transfected with DNA encoding the ETB receptor and express the human ETB receptor on their surfaces were grown to confluence in T-175 flasks. Cells from multiple flasks were collected by scraping, pooled and centrifuged for 10 min at 190×g. The cells were resuspended in phosphate buffered saline (PBS) containing 10 mM EDTA using a Tenbroeck homogenizer. The suspension was centrifuged at 4° C. 57,800×g for 15 min, the pellet was resuspended in 5 ml of buffer A (5 mM HEPES buffer, pH 7.4 containing aprotinin (100 KIU/ml)) and then frozen and thawed once. Five ml of Buffer B (5 mM HEPES Buffer, pH 7.4 containing 10 mM MnCl2 and 0.001% deoxyribonuclease Type 1) was added, the suspension mixed by inversion and then incubated at 37° C. for 30 minutes. The mixture was centrifuged at 57,800×g as described above, the pellet washed twice with buffer A and then resuspended in buffer C (30 mM HEPES buffer, pH 7.4 containing aprotinin (100 KIU/ml) to give a final protein concentration of 2 mg/ml.
The binding assay was performed as described above using the membrane preparation diluted to give 1 μg/50 μl of binding buffer.

ETA and ETB receptors = assay: Summary statements on IC50 for ETA and ETB receptors / endothelin antagonist activity; assay type: binding, human; details: ETA versus ETB
From the text: as §1
The membrane suspension was diluted with binding buffer (30 mM HEPES buffer, pH 7.4 containing 150 mM NaCl, 5 mM MgCl2, 0.5% Bacitracin) to a concentration of 8 μg/50 μl. ^125I-endothelin-1 (3,000 cpm, […]) was added to 50 μL of either: (A) endothelin-1 (for non specific binding) to give a final concentration 80 nM); (B) binding buffer for total binding); or (C) a test compound (final concentration 1 nM to 100 μM). The membrane suspension (50 μL), containing up to 8 μg of membrane protein, was added to each of (A), (B), or (C). […]
The IC50 for each of the compounds of the preceding Examples for ETA and ETB receptors has been measured. […]

ETB receptors = details: concentrations up to 100 μM; cited from earlier work
ETA receptor = details: read-out: IC50, inhibition of 125I-labelled endothelin-1 binding, cited from earlier work
isolated vascular strips = details: read-out: EC50, contractile agent; cited from earlier work
[1] = incubation at 4° C., results generally from 1, 2, or 3 experiments, read-out: ETA (μM) IC50
[2] = incubation at 4° C., results generally from 1, 2, or 3 experiments, read-out: ETB (μM) IC50

Compound `Cc1noc(NP(=O)(c2ccccc2)c2ccccc2)c1C` [N-(3,4-dimethyl-5-isoxazolyl)diphenylphosphinic Amide] has an IC50 (human ETA receptors; [1]) of 7.1 µM and an IC50 (human ETB receptor; [2]) greater than 100 µM.

Work on `Cc1noc(NP(=O)(Oc2ccccc2)Oc2ccccc2)c1C` [N-(3,4-dimethyl-5-isoxazolyl)diphenylphosphoramidate] yielded an IC50 (human ETA receptors) of 2.5 µM and an IC50 (human ETB receptor) greater than 100 µM.

For `CCOP(=O)(Nc1onc(C)c1Br)OCC` [N-(4-bromo-3-methyl-5-isoxazolyl)diethylphosphoramidate], the IC50 (human ETA receptors) was 20 µM and the IC50 (human ETB receptor) was greater than 100 µM.

With `Cc1noc(NP(=O)(c2ccccc2)c2ccccc2)c1Br` [N-(4-bromo-3-methyl-5-isoxazolyl)diphenylphosphinic Amide] the IC50 (human ETA receptors; [1]) was 0.84 µM and the IC50 (human ETB receptor; [2]) was 85 µM.

With `Cc1noc(NP(=O)(Oc2ccccc2)Oc2ccccc2)c1Br` [N-(4-bromo-3-methyl-5-isoxazolyl)diphenylphosphoramidate] the IC50 (human ETA receptors) was 0.58 µM, the IC50 (human ETB receptor) was 77 µM and the “IC50 for ETA receptors substantially less than for ETB receptors (selectivity)” value (ETA and ETB receptors) was 10 to 100 fold.

In the case of “cyclo(D-Glu-L-Ala-allo-D-lle-L-Leu-D-Trp) [BE-18257B]”, the “inhibition of binding to receptors in tissues in which ETB receptors predominate” value (ETB receptors) is given as “fails to inhibit binding”, the IC50 (ETA receptor; aortic smooth muscle) is given as 1400 nM and the IC50 (ETA receptor; cultured aortic smooth muscle cells) is given as 500 nM. The IC50 (ETA receptor; ventricle membranes) was 800 nM.

For “endothelin-1: potent twenty-one amino acid peptide vasoconstrictor”, the EC50 (isolated vascular strips) is listed as 0.4 nM.
